Key:
[1] = tested on: Sprague-Dawley (Cox strain) rats; test: Oral median lethal dose in Sprague-Dawley (Cox strain) rats; assay type: in vivo
Experimental: (§1) The oral median lethal dose (LD50) of ClPhThICl was also determined in Sprague-Dawley (Cox strain) rats within a weight range of 93 to 118 grams. Five groups of rats, each consisting of 10 males and 10 females, were given the compound in an aqueous 0.5 percent METHOCEL hydroxypropyl methylcellulose (4000 cps.) suspension at a concentration of 300 mg/ml. The compound was administered as a single oral dose at 0.2 logarithmic dose intervals (709, 1120, 1780, 2820, 4450 mg/kg), and the following mortality experience was noted:
(§2) The percent of total mortalities occurring was 53.9, 79.3, 85.7 and 93.6 at 6, 24, 48 and 72 hours post-treatment, respectively. The last death occurred between 72 and 96 hours post-treatment in male rats in the 1780 and 4450 mg/kg groups.

[2] = as above; assay type: in vivo; details: rat, in vivo, po; for LD50: 7 and 14 days
Experimental: as §1, §2

S. aureus = test: Nutrient agar growth test, S. aureus (Example 3); assay type: cell-based; details: 0.001 percent by weight, 2 days, 35°C
Text: The 4-chlorophenyl-2-thienyliodonium chloride, trifluoroacetate and trichloroacetate salts are dispersed in melted nutrient agar to produce culture media containing 0.001 percent by weight of one of the salt compounds. Such melted media are then poured into petri dishes and the solidified surface in each dish inoculated with a 24-hour broth culture, one of the organisms S. aureus and S. typhosa. In a check operation, petri dishes containing unmodified nutrient agar are each individually inoculated in the same manner with the named organisms. After two days' incubation at 35°C. the agar surface in each dish is examined for microbial growth. […] At the time of these observations the check dishes are found to support a heavy growth of the two named organisms.

Clc1ccc([I+]c2cccs2)cc1.[Cl-] [4-Chlorophenyl-2-thienyliodonium chloride]
No. Dead ([1]; 708 mg/kg oral, 7 Days, females): 0/10
No. Dead ([1]; 708 mg/kg oral, 7 Days, males): 1/10
No. Dead ([1]; 708 mg/kg oral, 14 Days, females): 0/10
No. Dead ([1]; 708 mg/kg oral, 14 Days, males): 1/10
No. Dead ([1]; 1120 mg/kg oral, 7 Days, females): 6/10
No. Dead ([1]; 1120 mg/kg oral, 7 Days, males): 2/10
No. Dead ([1]; 1120 mg/kg oral, 14 Days, females): 6/10
No. Dead ([1]; 1120 mg/kg oral, 14 Days, males): 2/10
No. Dead ([1]; 1120 mg/kg oral, 24 Hours, females): 2/10
No. Dead ([1]; 1120 mg/kg oral, 24 Hours, males): 1/10
No. Dead ([1]; 1780 mg/kg oral, 7 Days, females): 7/10
No. Dead ([1]; 1780 mg/kg oral, 7 Days, males): 9/10
No. Dead ([1]; 1780 mg/kg oral, 14 Days, females): 7/10
No. Dead ([1]; 1780 mg/kg oral, 14 Days, males): 9/10
No. Dead ([1]; 1780 mg/kg oral, 24 Hours, females): 6/10
No. Dead ([1]; 1780 mg/kg oral, 24 Hours, males): 4/10
No. Dead ([1]; 2820 mg/kg oral, 7 Days, females): 10/10
No. Dead ([1]; 2820 mg/kg oral, 7 Days, males): 8/10
No. Dead ([1]; 2820 mg/kg oral, 14 Days, females): 10/10
No. Dead ([1]; 2820 mg/kg oral, 14 Days, males): 8/10
No. Dead ([1]; 2820 mg/kg oral, 24 Hours, females): 9/10
No. Dead ([1]; 2820 mg/kg oral, 24 Hours, males): 8/10
No. Dead ([1]; 4450 mg/kg oral, 7 Days, females): 10/10
No. Dead ([1]; 4450 mg/kg oral, 7 Days, males): 10/10
No. Dead ([1]; 4450 mg/kg oral, 14 Days, females): 10/10
No. Dead ([1]; 4450 mg/kg oral, 14 Days, males): 10/10
No. Dead ([1]; 4450 mg/kg oral, 24 Hours, females): 10/10
No. Dead ([1]; 4450 mg/kg oral, 24 Hours, males): 9/10
percent of total mortalities occurring ([1]; 6 hours post-treatment): 53.9%
percent of total mortalities occurring ([1]; 24 hours post-treatment): 79.3%
percent of total mortalities occurring ([1]; 48 hours post-treatment): 85.7%
percent of total mortalities occurring ([1]; 72 hours post-treatment): 93.6%
LD50 ([2]; female rats, 95% confidence limits 785-1540 mg/kg): 1100 mg/kg
LD50 ([2]; male rats, 95% confidence limits 1171-2296 mg/kg): 1640 mg/kg
LD50 at 24 h ([2]; female rats, 95% confidence limits 1230-2080 mg/kg): 1600 mg/kg
LD50 at 24 h ([2]; male rats, 95% confidence limits 1241-2610 mg/kg): 1800 mg/kg
microbial growth on agar surface (S. aureus): free of microbial growth

From patent publication US3944498A, “Germicidal detergent containing a thienyliodonium salt” (The Dow Chemical Company, priority 1973, dated 1976)
